Data on two molecules can be found in patent US20120034193A1, “TREATMENT OF NEUROTROPHIC FACTOR MEDIATED DISORDERS” (priority 2009, published 2012).

Assay [1] addresses T1, Histamine H1 (Cavia porcellus, UniProt P31389).
T1 construct: host or cells: tissue or cell homogenate, not specified
Description: Receptor binding assay. Set-up: species or system Guinea Pig. As to conditions: sarsasapogenin 10 μM. Here is the method:
(§1) The receptor binding was investigated using the following method: Sarsasapogenin was incubated with tissue or cell homogenate that expressed the receptor of interest and a known concentration a radiolabelled compound with affinity for the receptor of interest. After the incubation period the non-bound radiolabelled compound was removed and the amount of specific binding was quantified. The amount of specific binding in the presence and absence of sarsasapogenin were compared and the percent inhibition of the binding of the radiolabelled compound by sarsasapogenin was calculated. The source of the receptor, the incubation conditions, the radiolabelled compound used varied depending on each specific assay.

Assay [2] has as its system Calcium Channel L-Type, Benzothiazepine. The experiment in a line: Binding assay. Set-up: species or system Rat. As to conditions: smilagenin 1 μM. On the procedure: as §1
(§2) Using the same methods as described above, the binding of smilagenin (1 μM) to the receptors listed in Table 2 below, and the effect of smilagenin on the activity of the enzymes listed in Table 2 below, were investigated.

The subject of assay [3] is Calcium Channel L-Type, Phenylalkylamine. Description: Binding assay. Set-up: species or system Rat. As to conditions: smilagenin 1 μM. Here is the method:
as §1, §2

The test system of assay [4] is GABAA Flunitrazepam, Central. Description: Binding assay. Details: species or system Rat. As to conditions: smilagenin 1 μM. On the procedure: as §1, §2
The subject of assay [5] is GABAA Muscimol, Central. Description: Binding assay. Set-up: species or system Rat. As to conditions: smilagenin 1 μM. On the procedure:
as §1, §2

Assay [6] has as its system Gabapentin. Description: Binding assay. Set-up: species or system Rat. As to conditions: smilagenin 1 μM. Here is the method:
as §1, §2

Assay [7] has as its system Glutamate, AMPA. Description: Binding assay. Details: species or system Rat. As to conditions: smilagenin 1 μM. Here is the method: as §1, §2
In assay [8] the test system is Glutamate, Kainate. The experiment in a line: Binding assay. Details: species or system Rat. As to conditions: smilagenin 1 μM. Here is the method: as §1, §2
Assay [9] has as its system Glutamate, NMDA, Agonism. The experiment in a line: Binding assay. Details: species or system Rat. As to conditions: smilagenin 1 μM. On the procedure: as §1, §2
The subject of assay [10] is Inositol trisphosphate IP3. Description: Binding assay. Set-up: species or system Rat. As to conditions: smilagenin 1 μM. On the procedure: as §1, §2
The subject of assay [11] is Potassium Channel [SKCA]. The experiment in a line: Binding assay. Details: species or system Rat. As to conditions: smilagenin 1 μM. Here is the method:
as §1, §2

In assay [12] the test system is Purinergic P2Y. The experiment in a line: Binding assay. Details: species or system Rat. As to conditions: smilagenin 1 μM. On the procedure:
as §1, §2

In assay [13] the test system is Rolipram. Description: Binding assay. As to conditions: smilagenin 1 μM. Set-up: species or system Rat. Here is the method:
as §1, §2

Assay [14] concerns Thyroid Hormone. Description: Binding assay. Details: species or system Rat. As to conditions: smilagenin 1 μM. On the procedure: as §1, §2
Assay [15] deals with 5-Hydroxytryptamine, 5-HT4 (Cavia porcellus, UniProt O70528). The experiment in a line: Binding assay. Details: species or system Guinea pig. As to conditions: smilagenin 1 μM. On the procedure: as §1, §2
Assay [16] has as its system Atrial Natriuretic Factor. Description: Binding assay. Set-up: species or system Guinea pig. As to conditions: smilagenin 1 μM. On the procedure: as §1, §2
Assay [17] concerns Transporter, Adenosine. The experiment in a line: Binding assay. Set-up: species or system Guinea pig. As to conditions: smilagenin 1 μM. On the procedure: as §1, §2
Assay [18] can be described thus: Functional assay. As to conditions: smilagenin 1 μM. It counts as biochemical. On the procedure: (§3) The enzyme activity modulation was investigated using the following method: Sarsasapogenin was incubated with each enzyme plus a specific substrate for each enzyme. After the incubation period the reaction was stopped and the reduction of the specific substrate or the increase in a specific product in the absence and presence of sarsasapogenin was measured and the percent inhibition of the reaction in the presence of sarsasapogenin was calculated. The amount of enzyme used, the incubation conditions, the substrate used and the method of quantification varied depending on each specific assay.
as §2

Assay [19] has as its target Aldose reductase (Rattus norvegicus, UniProt P07943). Description: Functional assay. In kind it is biochemical. As to conditions: smilagenin 1 μM. Here is the method:
as §3, §2

For assay [20], the target named is Protein Serine/Threonine Kinase, AKT1 (PRKBA) (Homo sapiens, UniProt P31749). Description: Functional assay. It counts as biochemical. As to conditions: smilagenin 1 μM. Here is the method: as §3, §2
Sequence of Protein Serine/Threonine Kinase, AKT1 (PRKBA) (P31749 whole entry): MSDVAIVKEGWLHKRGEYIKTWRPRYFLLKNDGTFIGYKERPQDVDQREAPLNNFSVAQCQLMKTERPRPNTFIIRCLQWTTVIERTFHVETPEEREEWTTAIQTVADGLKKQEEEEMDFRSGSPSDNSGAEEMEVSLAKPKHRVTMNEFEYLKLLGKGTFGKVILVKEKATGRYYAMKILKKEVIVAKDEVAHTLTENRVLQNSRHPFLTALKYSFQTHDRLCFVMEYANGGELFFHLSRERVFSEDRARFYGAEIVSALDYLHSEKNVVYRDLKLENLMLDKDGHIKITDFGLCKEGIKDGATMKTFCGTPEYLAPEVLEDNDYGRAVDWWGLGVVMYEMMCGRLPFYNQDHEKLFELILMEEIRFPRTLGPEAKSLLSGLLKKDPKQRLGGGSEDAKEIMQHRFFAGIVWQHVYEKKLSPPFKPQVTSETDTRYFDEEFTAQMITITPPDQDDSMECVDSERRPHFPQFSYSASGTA
Assay [21] addresses Protein Serine/Threonine Kinase, AKT3 (PRKBG) (Homo sapiens, UniProt Q9Y243). The experiment in a line: Functional assay. In kind it is biochemical. As to conditions: smilagenin 1 μM. On the procedure: as §3, §2
Assay [22] deals with Protein Serine/Threonine Kinase, CAMK2D (KCC2D) (Homo sapiens, UniProt Q13557). The experiment in a line: Functional assay. In kind it is biochemical. As to conditions: smilagenin 1 μM. Here is the method: as §3, §2
Assay [23] addresses Protein Serine/Threonine Kinase, MAP2K1 (MEK1 ) (Homo sapiens, UniProt Q02750). The experiment in a line: Functional assay. It counts as biochemical. As to conditions: smilagenin 1 μM. Here is the method:
as §3, §2

Assay [24] deals with Protein Serine/Threonine Kinase, MAPK1 (ERK2) (Homo sapiens, UniProt P28482). Description: Functional assay. In kind it is biochemical. As to conditions: smilagenin 1 μM. On the procedure: as §3, §2
Assay [25] has as its target Protein Serine/Threonine Kinase, MAPK11 (p38β) (Homo sapiens, UniProt Q15759). The experiment in a line: Functional assay. As to conditions: smilagenin 1 μM. In kind it is biochemical. On the procedure: as §3, §2
The target in assay [26] is Protein Serine/Threonine Kinase, MAPK12 (p38γ) (Homo sapiens, UniProt P53778). Description: Functional assay. In kind it is biochemical. As to conditions: smilagenin 1 μM. Here is the method: as §3, §2
Sequence of Protein Serine/Threonine Kinase, MAPK12 (p38γ) (P53778 whole entry): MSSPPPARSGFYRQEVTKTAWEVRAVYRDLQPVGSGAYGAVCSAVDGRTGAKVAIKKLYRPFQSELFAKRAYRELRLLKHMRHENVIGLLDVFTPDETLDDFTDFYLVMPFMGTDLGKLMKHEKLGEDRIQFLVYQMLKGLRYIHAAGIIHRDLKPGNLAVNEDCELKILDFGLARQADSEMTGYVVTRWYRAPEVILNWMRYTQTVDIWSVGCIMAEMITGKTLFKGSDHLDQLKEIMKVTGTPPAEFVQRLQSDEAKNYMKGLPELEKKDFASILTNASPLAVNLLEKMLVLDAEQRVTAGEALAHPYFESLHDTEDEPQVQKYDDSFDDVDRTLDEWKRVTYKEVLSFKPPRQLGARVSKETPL
Assay [27] has as its target Protein Serine/Threonine Kinase, MAPK13 (p38δ) (Homo sapiens, UniProt O15264). The experiment in a line: Functional assay. It counts as biochemical. As to conditions: smilagenin 1 μM. On the procedure: as §3, §2
The target in assay [28] is Protein Serine/Threonine Kinase, MAPK3 (ERK1) (Homo sapiens, UniProt P27361). Description: Functional assay. As to conditions: smilagenin 1 μM. In kind it is biochemical. On the procedure:
as §3, §2

Assay [29] addresses Protein Serine/Threonine Kinase, MAPK8 (JNK1) (Homo sapiens, UniProt P45983). Description: Functional assay. It counts as biochemical. As to conditions: smilagenin 1 μM. Here is the method:
as §3, §2

Assay [30] addresses Protein Tyrosine Kinase, NTRK1 (trkA) (Homo sapiens, UniProt P04629). The experiment in a line: Functional assay. It counts as biochemical. As to conditions: smilagenin 1 μM. Here is the method:
as §3, §2

Assay [31] deals with Protein Tyrosine Kinase, NTRK2 (trkB) (Homo sapiens, UniProt Q16620). The experiment in a line: Functional assay. As to conditions: smilagenin 1 μM. It counts as biochemical. Here is the method: as §3, §2
Sequence of Protein Tyrosine Kinase, NTRK2 (trkB) (Q16620 32-822): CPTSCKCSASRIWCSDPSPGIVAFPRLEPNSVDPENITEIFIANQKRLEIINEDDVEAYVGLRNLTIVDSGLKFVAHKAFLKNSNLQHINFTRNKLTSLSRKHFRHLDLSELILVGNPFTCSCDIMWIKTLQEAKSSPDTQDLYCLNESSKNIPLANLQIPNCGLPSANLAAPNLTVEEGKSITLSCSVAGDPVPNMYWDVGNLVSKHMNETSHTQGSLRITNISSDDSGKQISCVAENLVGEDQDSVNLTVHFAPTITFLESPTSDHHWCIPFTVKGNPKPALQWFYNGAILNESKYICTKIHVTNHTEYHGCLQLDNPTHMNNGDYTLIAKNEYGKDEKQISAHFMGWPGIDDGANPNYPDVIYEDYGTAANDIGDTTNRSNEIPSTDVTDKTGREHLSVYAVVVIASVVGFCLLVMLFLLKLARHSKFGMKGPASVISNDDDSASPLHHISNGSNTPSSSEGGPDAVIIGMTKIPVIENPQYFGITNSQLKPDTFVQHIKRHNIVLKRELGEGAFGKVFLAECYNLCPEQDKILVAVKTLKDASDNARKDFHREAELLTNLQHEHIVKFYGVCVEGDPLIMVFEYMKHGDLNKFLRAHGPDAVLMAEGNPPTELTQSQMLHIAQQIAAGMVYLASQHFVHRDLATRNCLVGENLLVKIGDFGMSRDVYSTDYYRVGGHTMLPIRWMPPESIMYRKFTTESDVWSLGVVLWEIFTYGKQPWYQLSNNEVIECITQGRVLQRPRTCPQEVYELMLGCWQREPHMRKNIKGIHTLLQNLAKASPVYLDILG
For assay [32], the target named is Protein Tyrosine Kinase, SRC (Homo sapiens, UniProt P12931). The experiment in a line: Functional assay. As to conditions: smilagenin 1 μM. In kind it is biochemical. Here is the method: as §3, §2
The target of assay [33] is UDP Glucuronosyltransferase, UGT1A1 (Homo sapiens, UniProt P22309). The experiment in a line: Functional assay. It counts as biochemical. As to conditions: smilagenin 1 μM. Here is the method: as §3, §2
Sequence of UDP Glucuronosyltransferase, UGT1A1 (P22309 26-533): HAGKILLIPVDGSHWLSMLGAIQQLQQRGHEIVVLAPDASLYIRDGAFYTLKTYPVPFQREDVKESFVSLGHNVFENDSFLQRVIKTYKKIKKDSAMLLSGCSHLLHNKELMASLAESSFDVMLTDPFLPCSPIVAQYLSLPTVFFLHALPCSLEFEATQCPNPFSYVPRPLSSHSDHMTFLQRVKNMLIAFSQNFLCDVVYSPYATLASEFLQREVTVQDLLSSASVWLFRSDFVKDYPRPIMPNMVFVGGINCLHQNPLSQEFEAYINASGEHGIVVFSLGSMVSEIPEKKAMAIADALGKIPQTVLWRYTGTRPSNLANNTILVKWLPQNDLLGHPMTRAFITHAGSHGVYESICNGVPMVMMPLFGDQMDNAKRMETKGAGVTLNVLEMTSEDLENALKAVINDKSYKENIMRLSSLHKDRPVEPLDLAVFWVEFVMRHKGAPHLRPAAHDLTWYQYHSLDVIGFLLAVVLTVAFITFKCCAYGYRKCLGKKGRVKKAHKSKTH

Sequence of Protein Serine/Threonine Kinase, MAPK11 (p38β) (Q15759 whole entry): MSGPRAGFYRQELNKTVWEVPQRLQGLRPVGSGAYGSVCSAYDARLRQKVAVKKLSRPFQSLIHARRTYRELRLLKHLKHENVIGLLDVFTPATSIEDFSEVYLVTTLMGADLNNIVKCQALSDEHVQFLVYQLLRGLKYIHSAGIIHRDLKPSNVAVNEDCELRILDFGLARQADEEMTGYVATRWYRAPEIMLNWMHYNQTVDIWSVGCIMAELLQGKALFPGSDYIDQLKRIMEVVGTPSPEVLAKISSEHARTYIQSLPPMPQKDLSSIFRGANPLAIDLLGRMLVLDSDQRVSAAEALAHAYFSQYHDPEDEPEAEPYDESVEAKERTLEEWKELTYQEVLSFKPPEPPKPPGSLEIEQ
T1 sequence (P31389 whole entry): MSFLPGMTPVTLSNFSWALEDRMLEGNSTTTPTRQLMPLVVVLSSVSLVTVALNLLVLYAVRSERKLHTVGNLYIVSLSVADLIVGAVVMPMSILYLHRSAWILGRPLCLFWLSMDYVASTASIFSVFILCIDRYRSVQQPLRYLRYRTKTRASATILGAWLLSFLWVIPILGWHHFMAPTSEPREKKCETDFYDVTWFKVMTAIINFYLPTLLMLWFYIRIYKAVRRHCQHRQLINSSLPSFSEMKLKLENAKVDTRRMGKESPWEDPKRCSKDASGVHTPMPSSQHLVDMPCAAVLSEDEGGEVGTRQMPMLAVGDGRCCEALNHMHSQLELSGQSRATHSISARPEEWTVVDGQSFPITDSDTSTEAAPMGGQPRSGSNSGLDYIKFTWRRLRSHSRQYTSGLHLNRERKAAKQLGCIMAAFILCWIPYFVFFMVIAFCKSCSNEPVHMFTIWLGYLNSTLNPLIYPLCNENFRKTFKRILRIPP
Sequence of Protein Tyrosine Kinase, NTRK1 (trkA) (P04629 33-796): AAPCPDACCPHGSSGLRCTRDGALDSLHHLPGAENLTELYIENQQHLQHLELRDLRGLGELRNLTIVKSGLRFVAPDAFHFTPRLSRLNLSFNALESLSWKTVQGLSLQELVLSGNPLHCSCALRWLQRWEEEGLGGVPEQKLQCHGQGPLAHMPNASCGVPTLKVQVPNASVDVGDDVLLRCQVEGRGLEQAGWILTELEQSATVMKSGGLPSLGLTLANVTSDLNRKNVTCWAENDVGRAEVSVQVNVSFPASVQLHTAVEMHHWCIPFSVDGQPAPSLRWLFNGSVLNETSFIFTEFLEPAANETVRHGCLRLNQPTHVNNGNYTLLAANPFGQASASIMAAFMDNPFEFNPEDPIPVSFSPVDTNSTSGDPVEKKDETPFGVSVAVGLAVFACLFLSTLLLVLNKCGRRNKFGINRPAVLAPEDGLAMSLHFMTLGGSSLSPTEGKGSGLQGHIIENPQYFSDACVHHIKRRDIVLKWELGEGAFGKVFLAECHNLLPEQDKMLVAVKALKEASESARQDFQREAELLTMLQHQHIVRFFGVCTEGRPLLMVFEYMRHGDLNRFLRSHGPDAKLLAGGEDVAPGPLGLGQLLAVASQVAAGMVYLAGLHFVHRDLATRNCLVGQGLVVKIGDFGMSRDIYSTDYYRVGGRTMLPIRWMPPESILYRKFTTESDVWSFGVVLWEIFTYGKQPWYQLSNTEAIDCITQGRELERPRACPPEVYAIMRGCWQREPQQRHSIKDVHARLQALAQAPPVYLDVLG
Sequence of Protein Serine/Threonine Kinase, MAP2K1 (MEK1 ) (Q02750 whole entry): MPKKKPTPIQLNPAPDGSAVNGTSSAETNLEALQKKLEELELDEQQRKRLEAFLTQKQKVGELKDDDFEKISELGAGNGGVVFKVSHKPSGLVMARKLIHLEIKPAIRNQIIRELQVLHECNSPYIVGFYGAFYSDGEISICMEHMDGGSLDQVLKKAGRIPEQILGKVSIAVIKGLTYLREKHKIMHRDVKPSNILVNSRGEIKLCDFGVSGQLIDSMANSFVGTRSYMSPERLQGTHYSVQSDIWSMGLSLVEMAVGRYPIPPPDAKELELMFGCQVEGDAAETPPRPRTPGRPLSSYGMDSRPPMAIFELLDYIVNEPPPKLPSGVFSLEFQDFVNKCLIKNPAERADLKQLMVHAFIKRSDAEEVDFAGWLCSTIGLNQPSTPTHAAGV
Sequence of Protein Serine/Threonine Kinase, MAPK8 (JNK1) (P45983 whole entry): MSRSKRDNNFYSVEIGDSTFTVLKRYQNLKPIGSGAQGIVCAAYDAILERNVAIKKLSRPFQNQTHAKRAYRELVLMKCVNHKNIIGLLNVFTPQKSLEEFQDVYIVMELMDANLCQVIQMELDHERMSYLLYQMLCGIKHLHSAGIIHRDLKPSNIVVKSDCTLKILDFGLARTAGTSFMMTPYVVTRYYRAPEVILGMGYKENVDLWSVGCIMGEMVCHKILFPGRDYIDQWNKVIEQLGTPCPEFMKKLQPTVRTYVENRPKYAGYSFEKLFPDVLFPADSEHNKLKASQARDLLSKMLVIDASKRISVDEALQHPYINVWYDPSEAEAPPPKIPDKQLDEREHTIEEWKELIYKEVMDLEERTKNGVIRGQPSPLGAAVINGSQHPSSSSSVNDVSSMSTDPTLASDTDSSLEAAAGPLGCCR
Sequence of Protein Serine/Threonine Kinase, MAPK13 (p38δ) (O15264 whole entry): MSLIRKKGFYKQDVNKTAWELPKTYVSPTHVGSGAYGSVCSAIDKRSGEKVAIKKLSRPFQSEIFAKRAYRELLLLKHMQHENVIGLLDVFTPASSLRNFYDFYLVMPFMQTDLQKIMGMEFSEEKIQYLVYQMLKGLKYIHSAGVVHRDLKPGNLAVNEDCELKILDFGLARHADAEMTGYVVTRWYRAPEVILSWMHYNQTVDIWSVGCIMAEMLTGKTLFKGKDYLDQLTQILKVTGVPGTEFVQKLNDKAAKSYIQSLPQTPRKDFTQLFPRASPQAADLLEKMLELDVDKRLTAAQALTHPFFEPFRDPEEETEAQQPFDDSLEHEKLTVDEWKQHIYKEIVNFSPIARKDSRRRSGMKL

Take `C[C@H]1CC[C@@]2(OC1)O[C@H]1C[C@H]3[C@@H]4CC[C@@H]5C[C@@H](O)CC[C@]5(C)[C@H]4CC[C@]3(C)[C@H]1[C@@H]2C` [Sarsasapogenin, sarsasapogenin]: in assay [1], the “Effect (%)” value was “NS (NS = No significant response. Significance was taken as ≧30% stimulation or inhibition)”.

As for `C[C@@H]1CC[C@@]2(OC1)O[C@H]1C[C@H]3[C@@H]4CC[C@@H]5C[C@@H](O)CC[C@]5(C)[C@H]4CC[C@]3(C)[C@H]1[C@@H]2C` [Smilagenin, smilagenin], the “Effect (%)” value in [2], in assay [3], in assay [4], in [5], in assay [6] and in assay [7] was “NS (NS = No significant response. Significance was taken as ≧30% stimulation or inhibition)” each time. The “Effect (%)” value in assay [8], in assay [9], in [10], in [11], in assay [12] and in assay [13] was “NS (NS = No significant response. Significance was taken as ≧30% stimulation or inhibition)” each time. Moreover, the “Effect (%)” value in assay [14], in [15], in assay [16], in [17], in [18] and in assay [19] was “NS (NS = No significant response. Significance was taken as ≧30% stimulation or inhibition)” throughout. The “Effect (%)” value in assay [20], in [21], in assay [22], in [23], in assay [24] and in [25] was “NS (NS = No significant response. Significance was taken as ≧30% stimulation or inhibition)” each time. In addition, the “Effect (%)” value in assay [26], in assay [27], in assay [28], in assay [29], in [30] and in assay [31] was “NS (NS = No significant response. Significance was taken as ≧30% stimulation or inhibition)” in each case. The “Effect (%)” value in [32] and in assay [33] was “NS (NS = No significant response. Significance was taken as ≧30% stimulation or inhibition)” each time.
